According to BigSolDB 2.1:

Nc1ccnc(=O)[nH]1
solubility (mole fraction) (in DMSO, 293.15 K): 0.00997 | solubility (mole fraction) (in DMSO, 298.15 K): 0.0105 | solubility (mole fraction) (in DMSO, 303.15 K): 0.0111 | solubility (mole fraction) (in DMSO, 308.15 K): 0.012 | solubility (mole fraction) (in DMSO, 313.15 K): 0.0129 | solubility (mole fraction) (in DMSO, 318.15 K): 0.0136 | solubility (mole fraction) (in DMSO, 323.15 K): 0.0145 | solubility (mole fraction) (in DMSO, 328.15 K): 0.0155 | solubility (mole fraction) (in ethanol, 288.15 K): 0.000339 | solubility (mole fraction) (in ethanol, 293.15 K): 0.000348 | solubility (mole fraction) (in ethanol, 298.15 K): 0.000372 | solubility (mole fraction) (in ethanol, 303.15 K): 0.000423 | solubility (mole fraction) (in ethanol, 308.15 K): 0.000451 | solubility (mole fraction) (in ethanol, 313.15 K): 0.000497 | solubility (mole fraction) (in ethanol, 318.15 K): 0.000523 | solubility (mole fraction) (in ethanol, 323.15 K): 0.000609 | solubility (mole fraction) (in ethanol, 328.15 K): 0.000692 | solubility (mole fraction) (in isobutanol, 288.15 K): 0.000144 | solubility (mole fraction) (in isobutanol, 293.15 K): 0.000162 | solubility (mole fraction) (in isobutanol, 298.15 K): 0.000175 | solubility (mole fraction) (in isobutanol, 303.15 K): 0.0002 | solubility (mole fraction) (in isobutanol, 308.15 K): 0.000224 | solubility (mole fraction) (in isobutanol, 313.15 K): 0.000268 | solubility (mole fraction) (in isobutanol, 318.15 K): 0.000309 | solubility (mole fraction) (in isobutanol, 323.15 K): 0.00035 | solubility (mole fraction) (in isobutanol, 328.15 K): 0.000394 | solubility (mole fraction) (in isopentanol, 288.15 K): 0.000201 | solubility (mole fraction) (in isopentanol, 293.15 K): 0.000221 | solubility (mole fraction) (in isopentanol, 298.15 K): 0.000253 | solubility (mole fraction) (in isopentanol, 303.15 K): 0.000278 | solubility (mole fraction) (in isopentanol, 308.15 K): 0.000308 | solubility (mole fraction) (in isopentanol, 313.15 K): 0.000344 | solubility (mole fraction) (in isopentanol, 318.15 K): 0.000374 | solubility (mole fraction) (in isopentanol, 323.15 K): 0.000415 | solubility (mole fraction) (in isopentanol, 328.15 K): 0.000483 | solubility (mole fraction) (in isopropanol, 288.15 K): 0.000159 | solubility (mole fraction) (in isopropanol, 293.15 K): 0.000175 | solubility (mole fraction) (in isopropanol, 298.15 K): 0.000187 | solubility (mole fraction) (in isopropanol, 303.15 K): 0.000205 | solubility (mole fraction) (in isopropanol, 308.15 K): 0.00024 | solubility (mole fraction) (in isopropanol, 313.15 K): 0.000283 | solubility (mole fraction) (in isopropanol, 318.15 K): 0.000316 | solubility (mole fraction) (in isopropanol, 323.15 K): 0.000358 | solubility (mole fraction) (in isopropanol, 328.15 K): 0.000412 | solubility (mole fraction) (in methanol, 288.15 K): 0.000721 | solubility (mole fraction) (in methanol, 293.15 K): 0.000808 | solubility (mole fraction) (in methanol, 298.15 K): 0.000897 | solubility (mole fraction) (in methanol, 303.15 K): 0.000999 | solubility (mole fraction) (in methanol, 308.15 K): 0.00112 | solubility (mole fraction) (in methanol, 313.15 K): 0.00125 | solubility (mole fraction) (in methanol, 318.15 K): 0.00143 | solubility (mole fraction) (in methanol, 323.15 K): 0.00159 | solubility (mole fraction) (in methanol, 328.15 K): 0.00177 | solubility (mole fraction) (in n-butanol, 288.15 K): 0.000171 | solubility (mole fraction) (in n-butanol, 293.15 K): 0.000193 | solubility (mole fraction) (in n-butanol, 298.15 K): 0.000221 | solubility (mole fraction) (in n-butanol, 303.15 K): 0.000241 | solubility (mole fraction) (in n-butanol, 308.15 K): 0.000274 | solubility (mole fraction) (in n-butanol, 313.15 K): 0.000301 | solubility (mole fraction) (in n-butanol, 318.15 K): 0.000344 | solubility (mole fraction) (in n-butanol, 323.15 K): 0.000389 | solubility (mole fraction) (in n-butanol, 328.15 K): 0.000439 | solubility (mole fraction) (in n-hexanol, 288.15 K): 0.000139 | solubility (mole fraction) (in n-hexanol, 293.15 K): 0.000153 | solubility (mole fraction) (in n-hexanol, 298.15 K): 0.000168 | solubility (mole fraction) (in n-hexanol, 303.15 K): 0.000187 | solubility (mole fraction) (in n-hexanol, 308.15 K): 0.000213 | solubility (mole fraction) (in n-hexanol, 313.15 K): 0.000251 | solubility (mole fraction) (in n-hexanol, 318.15 K): 0.00029 | solubility (mole fraction) (in n-hexanol, 323.15 K): 0.000337 | solubility (mole fraction) (in n-hexanol, 328.15 K): 0.000378 | solubility (mole fraction) (in n-octanol, 288.15 K): 0.000102 | solubility (mole fraction) (in n-octanol, 293.15 K): 0.000108 | solubility (mole fraction) (in n-octanol, 298.15 K): 0.00012 | solubility (mole fraction) (in n-octanol, 303.15 K): 0.000133 | solubility (mole fraction) (in n-octanol, 308.15 K): 0.000153 | solubility (mole fraction) (in n-octanol, 313.15 K): 0.000188 | solubility (mole fraction) (in n-octanol, 318.15 K): 0.00023 | solubility (mole fraction) (in n-octanol, 323.15 K): 0.000266 | solubility (mole fraction) (in n-octanol, 328.15 K): 0.000304 | solubility (mole fraction) (in n-pentanol, 288.15 K): 0.000165 | solubility (mole fraction) (in n-pentanol, 293.15 K): 0.000185 | solubility (mole fraction) (in n-pentanol, 298.15 K): 0.000197 | solubility (mole fraction) (in n-pentanol, 303.15 K): 0.000228 | solubility (mole fraction) (in n-pentanol, 308.15 K): 0.000254 | solubility (mole fraction) (in n-pentanol, 313.15 K): 0.000293 | solubility (mole fraction) (in n-pentanol, 318.15 K): 0.00033 | solubility (mole fraction) (in n-pentanol, 323.15 K): 0.000369 | solubility (mole fraction) (in n-pentanol, 328.15 K): 0.000425 | solubility (mole fraction) (in n-propanol, 288.15 K): 0.000218 | solubility (mole fraction) (in n-propanol, 293.15 K): 0.000235 | solubility (mole fraction) (in n-propanol, 298.15 K): 0.000273 | solubility (mole fraction) (in n-propanol, 303.15 K): 0.000303 | solubility (mole fraction) (in n-propanol, 308.15 K): 0.000329 | solubility (mole fraction) (in n-propanol, 313.15 K): 0.000373 | solubility (mole fraction) (in n-propanol, 318.15 K): 0.000433 | solubility (mole fraction) (in n-propanol, 323.15 K): 0.000526 | solubility (mole fraction) (in n-propanol, 328.15 K): 0.000588 | solubility (mole fraction) (in sec-butanol, 288.15 K): 0.000128 | solubility (mole fraction) (in sec-butanol, 293.15 K): 0.000137 | solubility (mole fraction) (in sec-butanol, 298.15 K): 0.000149 | solubility (mole fraction) (in sec-butanol, 303.15 K): 0.000165 | solubility (mole fraction) (in sec-butanol, 308.15 K): 0.000191 | solubility (mole fraction) (in sec-butanol, 313.15 K): 0.000234 | solubility (mole fraction) (in sec-butanol, 318.15 K): 0.000279 | solubility (mole fraction) (in sec-butanol, 323.15 K): 0.000321 | solubility (mole fraction) (in sec-butanol, 328.15 K): 0.000367 | solubility (mole fraction) (in tert-butanol, 303.15 K): 0.000269 | solubility (mole fraction) (in tert-butanol, 308.15 K): 0.00036 | solubility (mole fraction) (in tert-butanol, 313.15 K): 0.000461 | solubility (mole fraction) (in tert-butanol, 318.15 K): 0.000706 | solubility (mole fraction) (in tert-butanol, 323.15 K): 0.000848 | solubility (mole fraction) (in tert-butanol, 328.15 K): 0.00118 | solubility (mole fraction) (in water, 288.15 K): 0.000768 | solubility (mole fraction) (in water, 293.15 K): 0.000899 | solubility (mole fraction) (in water, 298.15 K): 0.00112 | solubility (mole fraction) (in water, 303.15 K): 0.00145 | solubility (mole fraction) (in water, 308.15 K): 0.00176 | solubility (mole fraction) (in water, 313.15 K): 0.00215 | solubility (mole fraction) (in water, 318.15 K): 0.00261 | solubility (mole fraction) (in water, 323.15 K): 0.00337 | solubility (mole fraction) (in water, 328.15 K): 0.00397
